In patent US9303249B2, “High concentration α-glucosidase compositions for the treatment of Pompe disease” (Amicus Therapeutics, Inc., priority 2012, dated 2016):
Where a name gives a salt, the structure may show the parent alone.

Tests used:
[1] = Aggregation of 25 mg/mL Myozyme® at pH 7.4 and 37° C. (Example 10); format: physicochemical; settings: 1 mM DNJ, PBS pH 7.4, 4 weeks at 37° C.
Procedure: Aggregation was assessed after a 4 week incubation period.
A liquid formulation comprising DNJ and GAA was prepared by dissolving DNJ in water to achieve a concentration of 10 mM DNJ. GAA was reconstituted in 1.8 ml water, and dialyzed overnight in phosphate buffered-saline (pH 7.4). […] of DNJ (10 mM) was then be added to 400 microliters of GAA, such that the GAA was at a concentration of 25 mg/ml.
25 mg/mL Myozyme® was incubated with or without 1 mM DNJ in phosphate-buffered saline at pH 7.4. Aggregation of Myozyme® was assessed after incubation for 4 weeks at 37° C.

[2] = Circulating rhGAA after subcutaneous DNJ co-formulated with Myozyme® (FIG. 14); format: in vivo; settings: DNJ co-formulated with 20 mg/kg Myozyme® vs Myozyme® without DNJ
GAA [3] = molecular target: T1, GAA (Homo sapiens, UniProt P10253); assay: rhGAA enzyme inactivation in whole blood at 37° C.; format: in vitro ADME; design: purchased Genzyme Corp; host or cells: Chinese hamster ovary cell line; settings: for enzyme inactivated: whole blood 37° C., no 1-DNJ-HCl
Procedure: Aliquots were collected at 0, 2, 4, 8 and 24 hrs and centrifuged to obtain plasma. These plasma samples were then diluted in potassium acetate buffer (pH 4.0) and assayed for GAA activity using the 4-methylumbeliferyl-α-glucose (4-MUG) fluorogenic substrate. The measured GAA activity for individual samples at each time point was normalized to the 0 hr and expressed as % of initial activity. Data from 4 independent experiments were analyzed to obtain the mean (and standard deviation) and plotted versus time to assess the loss of enzyme activity over this time course.
Aliquots were collected at 0, 3 and 6 hrs and centrifuged to obtain plasma. These plasma samples were then diluted in potassium acetate buffer (pH 4.0) and assayed for GAA activity using the 4-methylumbeliferyl-α-glucose (4-MUG) fluorogenic substrate. The measured GAA activity for individual samples at each time point was normalized to the 0 hr and expressed as % of initial activity.
Moreover, since Myozyme® has a long plasma half-life (reported to be more than 3 hrs), there is a high probability that an appreciable amount of the enzyme remains in the circulation many hours after the infusion that would also be prone to inactivation.
Based on human plasma PK data, these concentrations are readily obtainable in the clinic.

[4] = molecular target: T2, recombinant human GAA (Myozyme®) (Homo sapiens, UniProt P10253); assay: SYPRO Orange thermal stability assay; format: binding
T2 construct: purchased Genzyme Corp; host or cells: Chinese hamster ovary cell line
Procedure: The thermal stability assay utilizes heat to induce protein denaturation, which is monitored using a SYPRO Orange dye that fluoresces upon binding to hydrophobic amino acids (which are not exposed in a folded protein).
Denaturation is monitored using a SYPRO Orange dye that fluoresces upon binding to hydrophobic amino acids (which are not exposed in a folded protein).
The thermal stability was performed at pH 7.4 for two formulations, which corresponds to the pH of the ER.

GAA [5] = molecular target: T1, GAA; assay: GAA levels in cell lines derived from late-onset Pompe patients; format: cell-based; design: endogenous in cells; settings: cell lines with IVS 1 (−13 T>G) splicing mutation
GAA KO mice [6] = assay: Tissue glycogen reduction in GAA KO mice, Myozyme® IV with or without oral 1-DNJ-HCl (Example 9); format: in vivo, mouse
Procedure: Twelve-week old male GAA KO mice were administered a single dose of Myozyme® (40 mg/kg) via bolus tail vein injection every other week for 8 weeks. To prevent anaphylaxis, before the third and fourth Myozyme® injection, diphenhydramine (10 mg/kg intraperitoneally) was administered 10 min before Myozyme® injection. […] Mice were euthanized 14 days after the last Myozyme® administration.
Glycogen levels in heart, diaphragm, soleus, and quadriceps were then measured. […] Briefly, homogenates were prepared by homogenizing ˜50 mg tissue for 3-5 seconds on ice with a microhomogenizer in 200 μL deionized water. Supernatants were heat denatured (99° C. for 10 min) to remove endogenous amyloglucosidase activity. Denatured lysates (4 μL) were then analyzed in duplicate by addition of 36 μL water with and without 10 μL of 800 U/mL of amyloglucosidase (Sigma Aldrich, St. Louis, Mo.) and incubated for 1 hour at 50° C. The reaction was stopped by inactivation at 100° C. for 10 min. Finally, 200 μL of glucose reagent (Sigma) was added absorbance read at 340 nm on Spectramax. A standard curve ranging from 5 μg/mL to 400 μg/mL Type III rabbit liver glycogen (Sigma) was run each day for conversion of absorbance to absolute glycogen units. Simultaneously, the amount of protein was determined in tissue homogenates using the Micro BCA Protein Assay (Pierce, Rockford, Ill.) following the manufacturer's instructions. The glycogen content of each sample was normalized to protein, and data were finally expressed as micrograms of glycogen per milligram of protein (μg/mg protein).

GAA KO mice [7] = assay: Tissue glycogen reduction after repeat IV Myozyme® in GAA KO mice; format: in vivo, mouse; settings: 20 mg/kg IV bolus, 4 administrations at two-week intervals, 14 days after last
From the text: (§1) Mice were euthanized 3 days after the last administration for tissue GAA activity measurement and 14 days after the administration for glycogen measurement. Data was compared with uptake (on day 3) and glycogen reduction (on day 14) of historical Lumizyme® IV alone study. Tissue samples included heart, diaphragm, tongue, ventral skin (non-injection site), skin from the hind limb injection site, skin from the shoulder SQ injection site, left and right limb muscles (biceps, triceps, quadriceps, soleus and gastrocnemius). GAA activities in tissues were determined using a 4-MUG fluorogenic substrate assay. Glycogen levels were determined using a glycogen assay (see Example 9 for method).

GAA KO mice [8] = assay: Tissue rhGAA activity after repeat IV Myozyme® in GAA KO mice; format: in vivo, mouse; settings: 20 mg/kg IV bolus, 4 doses at 2 week intervals, 3 days after last dose
From the text: as §1
For both studies, the enzyme activities in tissues were assessed three days after the last (fourth) administration.

[9] = rat, iv
Procedure: Four groups of rats were administered one of the following dosing regimens:
(2) 10 mg/kg of rhGAA+Water;

Compound: OC[C@H]1NC[C@H](O)[C@@H](O)[C@@H]1O [DNJ, 1-deoxynojirimycin]
- aggregation of Myozyme® [1]: reduced aggregation of Myozyme®
- circulating levels of rhGAA [2]: increased the circulating levels of rhGAA

Compound: OC[C@H]1NC[C@H](O)[C@@H](O)[C@@H]1O [1-DNJ-HCl, 1-deoxynojirimycin hydrochloride]
- loss of rhGAA activity (GAA [3]; 2.5 μM 1-DNJ-HCl, whole blood, 6-hr time course): ~20%
- rhGAA activity in whole blood (GAA [3]; 50 μM 1-DNJ-HCl, 37° C., up to 24 hrs): remained completely active throughout the study
- thermal stability of rhGAA (heat to denature) ([4]; 100 μM 1-DNJ-HCl, pH 7.4, vs formulation without ASSC): required significantly more heat to denature
- GAA thermostability (melting temperature) ([4]; Myozyme® plus 1, 10, 100 μM 1-DNJ-HCl): increases GAA thermostability
- GAA levels (GAA [5]): increased GAA levels alone and in combination with hrGAA

Compound: Myozyme®: alglucosidase alfa, recombinant human acid α-glucosidase from Genzyme Corporation
- Glycogen reduction relative to untreated mice (GAA KO mice [6]; diaphragm, same regimen): 41±4%
- Glycogen reduction relative to untreated mice (GAA KO mice [6]; heart, Myozyme® 40 mg/kg IV every other week for 8 weeks, +/- 30 mg/kg oral 1-DNJ-HCl): 93±1%
- Glycogen reduction relative to untreated mice (GAA KO mice [6]; quadriceps, same regimen): 18±4%
- Glycogen reduction relative to untreated mice (GAA KO mice [6]; soleus, same regimen): 69±3%
- Glycogen reduction (% of untreated) (GAA KO mice [7]; Biceps): 5%
- Glycogen reduction (% of untreated) (GAA KO mice [7]; Diaphragm): 19%
- Glycogen reduction (% of untreated) (GAA KO mice [7]; Gastrocnemius): 15%
- Glycogen reduction (% of untreated) (GAA KO mice [7]; Heart): 51%
- Glycogen reduction (% of untreated) (GAA KO mice [7]; Quadriceps): 8%
- Glycogen reduction (% of untreated) (GAA KO mice [7]; Skin, 20 mg/kg): No reduction
- Glycogen reduction (% of untreated) (GAA KO mice [7]; Skin, listed as rhGAA (Myozyme), 20 mg/kg): No
- Glycogen reduction (% of untreated) (GAA KO mice [7]; Tongue): 54%
- Glycogen reduction (% of untreated) (GAA KO mice [7]; Triceps): 4%
- rhGAA activity uptake (GAA KO mice [8]; Biceps): 10.1 nmol/mg/h
- rhGAA activity uptake (GAA KO mice [8]; Diaphragm): 7.1 nmol/mg/h
- rhGAA activity uptake (GAA KO mice [8]; Gastrocnemius): 17.9 nmol/mg/h
- rhGAA activity uptake (GAA KO mice [8]; Heart): 1.8 nmol/mg/h
- rhGAA activity uptake (GAA KO mice [8]; Quadriceps): 6.9 nmol/mg/h
- rhGAA activity uptake (GAA KO mice [8]; Skin): 27.1 nmol/mg/h
- rhGAA activity uptake (GAA KO mice [8]; Soleus, 20 mg/kg): 8.0 nmol/mg/h
- rhGAA activity uptake (GAA KO mice [8]; Soleus, listed as rhGAA (Myozyme), 20 mg/kg): 8 nmol/mg/h
- rhGAA activity uptake (GAA KO mice [8]; Tongue): 12.4 nmol/mg/h
- rhGAA activity uptake (GAA KO mice [8]; Triceps): 3.9 nmol/mg/h

Compound: rhGAA: recombinant human acid α-glucosidase (e.g., Myozyme®)
- enzyme inactivated (GAA [3]; by 4 hrs): approximately 40%
- enzyme inactivated (GAA [3]; by 8 hrs): ~70%
- enzyme inactivated (GAA [3]; by 24 hrs): ~100%
- in vivo half life of rhGAA [9]: 1.4 ± 0.2 h
